The IC50 is the concentration that gives 50% inhibition.

Series [1] deals with HCT 116 colorectal carcinoma cells. As to the kind of experiment: Cell proliferation assay (resazurin) in HCT 116 cells. The class given is cell-based. Particulars: Homo sapiens, 72 hr compound incubation, inhibition of proliferation. As for the experimental part: (§1) HCT 116 colorectal carcinoma cells (ECACC/Sigma-Aldrich #91091005) were seeded in medium (McCoy's 5a+10% FBS) at a cell count of 1500 cells per 100 μL per well in a 96 well edge plate (ThermoFisher #167425). Cells were cultured at 37° C. for 24 hr in 5% CO2 environment (culture conditions) in a Nuaire incubator (humidified). Serially diluted test compounds (100 μL) within the desired testing concentration range (e.g., 0.014-30 μM) were added to the culture plate and the cells were further incubated in culture conditions for 72 hr. The experiment was terminated at the designated incubation time by replacing the medium with 100 μL, of 1 mM resazurin (Sigma-Aldrich #R7017) prepared in culture medium, and the plates were further incubated in culture conditions for 4-6 hr. Fluorescence was recorded using a multimodal plate reader (Biotek Synergy Neo) at an excitation wavelength of 535 nm and emission wavelength of 590 nm to obtain relative fluorescence units.
(§2) Data were analyzed as follows: the background fluorescence (blank containing only medium) value was subtracted from each reading and normalized with the vehicle control ([…]treated cells) to obtain percent survival/proliferation. Percent survival was subtracted from 100 to get the percent inhibition of proliferation which was used to calculate IC50 values.

A short description of series [2]: Microsome stability, human liver microsomes. It is filed as in vitro ADME. Particulars: NADPH, 37 °C, pH 7.4, read-out: hLM CLint (μg/min/mg). As for the experimental part: (§3) In a 96 deep well plate, 2.5 μL of 20 μM of each test compound in potassium phosphate buffer (pH 7,4) with 2% 1:9 DMSO:acetonitrile were added to 5 μL of 5 mg/mL microsomes (human liver microsomes (hLM), rat liver microsomes (rLM), or mouse liver microsomes (mLM)) and 37.5 μL of 100 mM prewarmed phosphate buffer (pH 7.4). Time point 0 (T0) samples were immediately quenched with 200 μL of chilled acetonitrile containing 50 ng/mL of internal standard. 5 4, of 10 mM NADPH was added to all other samples to start the reaction. The plate was incubated in a reciprocating water bath at 37 ° C. on 50 rpm for the duration of the assay. The remaining samples were quenched with 200 μL of chilled acetonitrile containing 50 ng/mL of internal standard at various timepoints. The samples were analyzed by LC-MS/MS (Sciex API 4500 QTrap). The % remaining, terminal elimination rate constant (K), half-life (t1/2), and intrinsic clearance (CLint) were calculated.

Series [3] is described as follows: Microsome stability, rat liver microsomes. The class given is in vitro ADME. Particulars: NADPH, 37 °C, pH 7.4, read-out: rLM CLint (μg/min/mg). As for the experimental part:
as §3

Series [4] deals with MIA PaCa-2 human pancreatic carcinoma cells. Put plainly: Cell proliferation assay (resazurin) in MIA PaCa-2 cells. Particulars: 96 hr compound incubation, inhibition of proliferation. The class given is cell-based. As for the experimental part: as §1, §2
Testing in MIA PaCa-2 human pancreatic carcinoma cells (ATCC® CRL-1420™) was done identically, except that the medium used was DMFM+10% FBS+2.5% horse serum, the cells were seeded at a cell count of 3000 cells per 100 μL per well and the test compound incubation time was 72 or 96 hr. The potency of compounds in other cell lines may be determined in an analogous manner.

The nature of series [5]: Microsome stability, mouse liver microsomes. It is filed as in vitro ADME. Particulars: NADPH, 37 °C, pH 7.4, read-out: mLM CLint (μg/min/mg). As for the experimental part:
as §3
In general terms: Liver microsomes are a subcellular fraction often used to study metabolism.

In the case of `Nc1nc(NCc2ccc(I)cc2)c(Cl)nc1C(=O)NCCN1CCN(Cc2ccccc2)CC1` [Compound 1, 3-amino-N-(2-(4-benzylpiperazin-1-yl)ethyl)-6-chloro-5-(4-iodobenzylamino) pyrazine-2-carboxamide], the figures for the IC50 in series [1] and in series [4] were 16.3 µM and 30.9 µM, respectively. The microsomal CLint at 1 µM in series [2] is 258 µL/min/mg; in series [3] it was 201 µL/min/mg; in series [5], 176 µL/min/mg.
For the compound `N/C(=N\C(=O)c1nc(Cl)c(NCc2ccc(I)cc2)nc1N)NCC1CCN(CCc2ccccc2)CC1` [Compound 51, 3-amino-N-(amino(((1-phenethylpiperidin-1-yl)methyl)amino)methylene)-6-chloro-5-((4-iodobenzyl)amino)pyrazine-2-carboxamide], the IC50 stood at 0.69 µM in series [1] and 1.9 µM in series [4]. Further, the microsomal CLint at 1 µM in series [2] stood at 52 µL/min/mg; in series [3], 29 µL/min/mg; in series [5] it was 67 µL/min/mg.
With `N/C(=N\C(=O)c1nc(Cl)c(NCc2ccc(I)cc2)nc1N)NCCCOc1ccc(Cl)cc1` [Compound 52, 3-amino-4-(amino(3-(4-chlorophenoxy)propylamino)methylene)-6-chloro-5-(4-iodobenzylamino)pyrazine-2-carboxamide], the IC50 in series [1] worked out at 1.33 µM; in series [4], 2.92 µM. The microsomal CLint at 1 µM was 20 µL/min/mg in series [2], 49 µL/min/mg in series [3] and 81 µL/min/mg in series [5].

These data come from patent US12655131B2, “Pyrazinecarboxamide analog compounds for use in treating cancer” (NOVAPANO, LLC, priority 2019, dated 2026).
